Measurements: patent US20060140872A1, “Novel signaling pathway for the production of inglammatory pain and neuropathy” (KOWA CO., LTD., priority 2003, published 2006)

System: allergic contact dermatitis (picryl chloride-induced dermatitis)
Assay: Mouse model of picryl chloride-induced dermatitis (auricle thickness)
Type: in vivo, mouse (female BALB/C)
Details: applied on left auricle 1 hour before induction; thickness 24 hours after induction; dose not given; FIG. 2

COc1cccc(-c2cc(=O)c3ccccc3o2)c1N [PD98059, 2-(2-amino-3-methoxyphenyl)-4-oxo-4H-[1]benzopyran]
suppressive action for allergic contact dermatitis (difference in auricle thickness): exhibited suppressive action for allergic contact dermatitis
